Experimental data reported in patent publication US7935724B2, “Thiophene and benzothiophene hydroxamic acid derivatives” (Merck HDAC Research, LLC, priority 2003, dated 2011).
Read-outs that look alike come from different tables or passages of the source.

Molecular target: T1, histone deacetylase, subtype 1 (HDAC1) (Homo sapiens, UniProt Q13547)
T1 construct: Flag; made in house
Assay: HDAC1-Flag assay (in vitro deacetylation assay)
Format: biochemical
Settings: concentration for 50% inhibition of deacetylation, substrate at Km, unit inferred, text gives nm, read-out: HDAC Inhibition
Procedure: Novel compounds were tested for their ability to inhibit histone deacetylase, subtype 1 (HDAC1) using an in vitro deacetylation assay. The enzyme source for this assay was an epitope-tagged human HDAC1 complex immuno-purified from stably expressing mammalian cells. The substrate consisted of a commercial product containing an acetylated lysine side chain (BIOMOL Research Laboratories, Inc., Plymouth Meeting, Pa.). Upon deacetylation of the substrate by incubation with the purified HDAC1 complex, a fluorophore is produced that is directly proportional to the level of deacetylation.

[1] = Table 1, benzothiophene backbone

T1 sequence (Q13547 whole entry): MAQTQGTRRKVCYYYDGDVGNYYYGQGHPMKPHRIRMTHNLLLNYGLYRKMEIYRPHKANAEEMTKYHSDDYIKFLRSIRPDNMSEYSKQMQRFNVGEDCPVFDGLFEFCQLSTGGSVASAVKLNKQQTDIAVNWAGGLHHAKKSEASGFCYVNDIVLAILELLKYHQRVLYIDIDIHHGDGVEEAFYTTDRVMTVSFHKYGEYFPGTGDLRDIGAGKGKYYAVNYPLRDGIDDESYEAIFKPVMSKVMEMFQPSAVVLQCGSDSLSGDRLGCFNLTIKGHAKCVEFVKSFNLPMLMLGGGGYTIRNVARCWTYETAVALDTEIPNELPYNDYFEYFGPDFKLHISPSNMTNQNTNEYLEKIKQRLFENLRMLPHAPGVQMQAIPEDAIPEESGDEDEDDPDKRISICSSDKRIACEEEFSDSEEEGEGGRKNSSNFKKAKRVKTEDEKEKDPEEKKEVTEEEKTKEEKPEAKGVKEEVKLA

| IC50 (Table 2, thiophene backbone) [nM] | IC50 [1] [nM] | SMILES |
| --- | --- | --- |
| 581 | – | O=C(CCc1ccc(C(=O)NO)s1)NCC(c1ccccc1)c1ccccc1 [Compound 83] |
| – | 56.5 ± 16.2 | O=C(Cc1ccc(F)cc1)Nc1ccc2sc(C(=O)NO)cc2c1 [Compound 84] |
| – | 76 ± 15.5 | COc1ccc(CC(=O)Nc2ccc3sc(C(=O)NO)cc3c2)cc1OC [Compound 85] |
| – | 111 ± 23.3 | COc1ccc(OC)c(CC(=O)Nc2ccc3sc(C(=O)NO)cc3c2)c1 [Compound 87] |
| – | 53 ± 7 | O=C(NCc1ccccc1)c1ccc2cc(C(=O)NO)sc2c1 [Compound 92] |
| – | 85.7 ± 23.5 | O=C(NCc1ccccn1)c1ccc2cc(C(=O)NO)sc2c1 [Compound 94] |
| – | 79.5 ± 33.2 | O=C(Cc1ccc(Cl)cc1)Nc1ccc2sc(C(=O)NO)cc2c1 [Compound 95] |
| – | 83 ± 21.2 | COc1ccc(CC(=O)Nc2ccc3sc(C(=O)NO)cc3c2)cc1 [Compound 96] |
| – | 14400 | CN(O)C(=O)c1cc2ccc(NC(=O)Cc3ccccc3)cc2s1 [Compound 102] |
| – | 1820 ± 508 | Nc1ccccc1NC(=O)c1cc2ccccc2s1 [Compound 103] |
| – | 582 ± 9.8 | O=C(Nc1ccccc1)c1ccc2sc(C(=O)NO)cc2c1 [Compound 104] |
| – | 155 ± 13.4 | O=C(NCCc1ccccc1)c1ccc2sc(C(=O)NO)cc2c1 [Compound 105] |
| – | 59 ± 15.5 | O=C(Cc1ccccn1)Nc1ccc2cc(C(=O)NO)sc2c1 [Compound 109] |
| – | 76 ± 21.2 | O=C(NCc1ccccc1)c1ccc2sc(C(=O)NO)cc2c1 [Compound 111] |
| – | 74.5 ± 7.7 | O=C(NCCCc1ccccc1)c1ccc2sc(C(=O)NO)cc2c1 [Compound 112] |
| – | 30775 ± 7 | CN(O)C(=O)c1cc2ccc(N(C)C(=O)Cc3ccccc3)cc2s1 [Compound 113] |
| – | 150 ± 12.7 | CC(=O)N1CCN(CC(=O)Nc2ccc3cc(C(=O)NO)sc3c2)CC1 [Compound 114] |
| – | 84 ± 5.6 | O=C(CN1CCOCC1)Nc1ccc2cc(C(=O)NO)sc2c1 [Compound 116] |
| – | 206 ± 50.9 | O=C(CN(CCc1ccccc1)Cc1ccccc1)Nc1ccc2cc(C(=O)NO)sc2c1 [Compound 117] |

| IC50 (Table 2, thiophene backbone) [nM] | IC50 [1] [nM] | SMILES |
| --- | --- | --- |
| – | 236 ± 28.9 | CC(C)(C)OC(=O)CN(CC(=O)Nc1ccc2cc(C(=O)NO)sc2c1)CC(=O)OC(C)(C)C [Compound 118] |
| – | 97 ± 21 | O=C(CN1CCN(c2cccc(Cl)c2)CC1)Nc1ccc2cc(C(=O)NO)sc2c1 [Compound 120] |
| – | 184 ± 58.2 | O=C(CN1CCCN(C(=O)OCc2ccccc2)CC1)Nc1ccc2cc(C(=O)NO)sc2c1 [Compound 121] |
| – | 163 ± 35.2 | CCOC(=O)N1CCN(CC(=O)Nc2ccc3cc(C(=O)NO)sc3c2)CC1 [Compound 122] |
| – | 177 ± 16 | COc1ccc(N2CCN(CC(=O)Nc3ccc4cc(C(=O)NO)sc4c3)CC2)cc1 [Compound 124] |
| – | 164 ± 1.4 | O=C(NO)c1cc2ccc(NC(=O)C3(c4ccc(Cl)cc4)CC3)cc2s1 [Compound 125] |
| – | 144 ± 63.7 | O=C(NCCc1cc2ccccc2[nH]1)c1ccc2cc(C(=O)NO)sc2c1 [Compound 128] |
| – | 261 ± 89.2 | O=C(NC1CCN(Cc2ccccc2)CC1)c1ccc2cc(C(=O)NO)sc2c1 [Compound 129] |
| – | 162 ± 40.3 | O=C(NCC(c1ccccc1)c1ccccc1)c1ccc2cc(C(=O)NO)sc2c1 [Compound 130] |
| – | 223 ± 11.3 | O=C(NC(Cc1ccccc1)c1ccccc1)c1ccc2cc(C(=O)NO)sc2c1 (stereo not shown) [Compound 131] |
| – | 284 ± 45.2 | O=C(NC(c1ccccc1)c1ccccc1)c1ccc2cc(C(=O)NO)sc2c1 [Compound 132] |
| – | 30.3 ± 6.5 | O=C(NCc1nc2ccccc2[nH]1)c1ccc2cc(C(=O)NO)sc2c1 [Compound 133] |
| – | 146 ± 10.3 | O=C(NCCc1ccccn1)c1ccc2cc(C(=O)NO)sc2c1 [Compound 134] |
| – | 424 ± 72.7 | O=C(NO)c1cc2ccc(C(=O)N3CCCCC3)cc2s1 [Compound 136] |
| – | 615 ± 207 | O=C(Nc1ccccc1)c1ccc2cc(C(=O)NO)sc2c1 [Compound 137] |
| – | 922 ± 174 | O=C(NC1CCc2ccccc21)c1ccc2cc(C(=O)NO)sc2c1 (stereo not shown) [Compound 138] |
| – | 176 ± 13.4 | O=C(NO)c1cc2ccc(C(=O)N3CCN(c4ccccc4)CC3)cc2s1 [Compound 139] |
| – | 869 ± 108 | O=C(NO)c1cc2cc(CNC(c3ccccc3)c3ccccc3)ccc2s1 [Compound 140] |
